# Patent US20260365670A1, “EGFR INHIBITORS AND USES THEREOF” (DIZAL (JIANGSU) PHARMACEUTICAL CO., LTD., priority 2022, published 2026)
# Like-named read-outs stand apart in the source and are kept apart here.
# How the values were obtained:
# EGFR wild type = target: T1, EGFR wild type (Homo sapiens, UniProt P00533); experiment: Inhibition of EGFR wild type biochemical enzymatic activity (HTRF); conditions: 1 mM ATP
# T1 construct: purchased Carna Bio
# In short: (§1)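 Recombinant kinases phosphorylated 1 μM biotinylated TK substrate with 1 mM ATP in buffer with 5 mM MgCl2, 1 mM MnCl2, 0.01% CHAPS, 1 mM DTT, 0.5% DMSO. Reaction ran 1 h at room temperature, stopped with EDTA-containing detection mix. HTRF 665/615 nm ratio gave IC50 via four-parameter logistic fit.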
# EGFR L858R = target: T2, EGFR L858R (Homo sapiens, UniProt P00533, L858R); experiment: Inhibition of EGFR L858R biochemical enzymatic activity (HTRF); conditions: 1 mM ATP
# T2 construct: purchased Carna Bio
# In short: as §1
# EGFR L858R/T790M = target: T3, EGFR L858R/T790M (Homo sapiens, UniProt P00533, L858R/T790M); experiment: Inhibition of EGFR L858R/T790M biochemical enzymatic activity (HTRF); conditions: 1 mM ATP
# T3 construct: purchased Carna Bio
# In short: as §1
# EGFR Exon19Del = target: T4, EGFR Exon19Del (Homo sapiens, UniProt P00533, DEL746-750); experiment: Inhibition of EGFR Exon19Del biochemical enzymatic activity (HTRF); conditions: read-out: IC50 @Del19
# T4 construct: purchased Carna Bio
# In short: as §1
# EGFR Exon19Del/T790M = target: T5, EGFR Exon19Del/T790M (Homo sapiens, UniProt P00533, DEL746-750/T790M); experiment: Inhibition of EGFR Exon19Del/T790M biochemical enzymatic activity (HTRF); conditions: 1 mM ATP
# T5 construct: purchased Carna Bio
# In short: as §1
# EGFR[T790M/C797S/L858R] = target: T6, EGFR[T790M/C797S/L858R] (Homo sapiens, UniProt P00533, C797S/L858R/T790M); experiment: Inhibition of EGFR[T790M/C797S/L858R] biochemical enzymatic activity (HTRF); conditions: 1 mM ATP
# T6 construct: purchased Carna Bio
# In short: as §1
# [1] = target: T7, EGFR[T790M/C797S/d746-750] (Homo sapiens, UniProt P00533, C797S/DEL746-750/T790M); experiment: Inhibition of EGFR[T790M/C797S/d746-750] biochemical enzymatic activity (HTRF)
# T7 construct: purchased Carna Bio
# In short: as §1
# EGFR (d746-750 C797S) = target: T8, EGFR (d746-750 C797S) (Homo sapiens, UniProt P00533, C797S/DEL746-750); experiment: Inhibition of EGFR (d746-750 C797S) biochemical enzymatic activity (HTRF); conditions: 1 mM ATP
# T8 construct: purchased signalchem
# In short: as §1
# EGFR (C797S L858R) = target: T9, EGFR (C797S L858R) (Homo sapiens, UniProt P00533, C797S/L858R); experiment: Inhibition of EGFR (C797S L858R) biochemical enzymatic activity (HTRF); conditions: 1 mM ATP
# T9 construct: purchased signalchem
# In short: as §1
# [2] = test system: Ba/F3 cells expressing EGFR mutations; experiment: Cell proliferation assay, Ba/F3 cells expressing EGFR mutations (CellTiter-Glo, 72 hours); type: cell-based
# In short: (§2)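 Ba/F3 cells carrying EGFR mutants (5000/well) or PC-9 cells (500/well) in RPMI1640 were dosed with compound series after overnight attachment and grown 72 h. Viability read by CellTiter-Glo, with day-0 counts subtracted; GI50 from curve fits of % proliferation versus DMSO control.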
# PC-9 = experiment: Cell proliferation assay, PC-9 cells (CellTiter-Glo, 72 hours); type: cell-based; conditions: PC9 cells, read-out: GI50 PC9
# In short: as §2
# A-431 = experiment: Cell proliferation assay, A-431 cells (GI50, Table 6); type: cell-based
# [3] = EGFR WT, 1 h, room temperature, read-out: IC50 (nM) @WT
# [4] = 1 h, room temperature, read-out: IC50 (nM) @L858R
# [5] = EGFR L858R-T790M, 1 h, room temperature, read-out: IC50 (nM) @L858R-T790M
# [6] = EGFR Del19, 1 mM ATP, 1 h, room temperature
# [7] = EGFR Del19-T790M, 1 h, room temperature, read-out: IC50 (nM) @Del19-T790M
# [8] = EGFR T790M-C797S-L858R, 1 h, room temperature, read-out: IC50 (nM) @T790M- C797S - L858R
# [9] = EGFR T790M-C797S-Del19, 1 mM ATP, 1 h, room temperature, read-out: IC50 (nM) @T790M - C797S - Del19
# [10] = EGFR Del19-C797S, 1 h, room temperature, read-out: IC50 (nM) @Del19-C797S
# [11] = EGFR L858-C797S, 1 h, room temperature, read-out: IC50 (nM) @L858-C797S
# [12] = Mus musculus, BaF3, 72 h, BaF3 cells, EGFR DEL19 - C797S, read-out: GI50 DEL19 - C797S/BaF3
# [13] = Mus musculus, BaF3, 72 h, BaF3 cells, EGFR DEL19 - T790-C797S, read-out: GI50 DEL19 - T790-C797S/BaF3
# [14] = Mus musculus, BaF3, 72 h, BaF3 cells, EGFR L858R - C797S, read-out: GI50 L858R - C797S/BaF3
# [15] = Mus musculus, BaF3, 72 h, BaF3 cells, EGFR L858R - T790-C797S, read-out: GI50 L858R - T790-C797S/BaF3
# [16] = Mus musculus, BaF3, 72 h, BaF3 cells, EGFR L858R - T790M, read-out: GI50 L858R - T790M/BaF3
# [17] = Mus musculus, BaF3, 72 h, BaF3 cells, EGFR L858R, read-out: GI50 L858R/BaF3
# [18] = Mus musculus, BaF3, 72 h, EGFR DEL19 - T790M, read-out: GI50 DEL19 - T790M
# [19] = Homo sapiens, A-431, A-431 cells
# [20] = EGFR wild type, 1 h at room temperature, read-out: IC50 @WT
# [21] = 1 h at room temperature, read-out: IC50 @L858R
# [22] = EGFR L858R/T790M, 1 h at room temperature, read-out: IC50 @L858R-T790M
# [23] = EGFR Exon19Del, 1 mM ATP, 1 h at room temperature
# [24] = EGFR Exon19Del/T790M, 1 h at room temperature, read-out: IC50 @Del19-T790M
# [25] = EGFR[T790M/C797S/L858R], 1 h at room temperature, read-out: IC50 @T790M- C797S - L858R
# [26] = EGFR[T790M/C797S/d746-750], 1 mM ATP, 1 h at room temperature, read-out: IC50 @T790M - C797S - Del19
# [27] = EGFR (d746-750 C797S), 1 h at room temperature, read-out: IC50 @Del19-C797S
# [28] = EGFR (C797S L858R), 1 h at room temperature, read-out: IC50 @L858-C797S
# [29] = BaF3 cells, EGFR DEL19 - C797S, read-out: GI50 DEL19 - C797S/BaF3
# [30] = BaF3 cells, EGFR DEL19 - T790-C797S, read-out: GI50 DEL19 - T790-C797S/BaF3
# [31] = BaF3 cells, EGFR L858R - C797S, read-out: GI50 L858R - C797S/BaF3
# [32] = BaF3 cells, EGFR L858R - T790-C797S, read-out: GI50 L858R - T790-C797S/BaF3
# [33] = BaF3 cells, EGFR L858R - T790M, read-out: GI50 L858R - T790M/BaF3
# [34] = BaF3 cells, EGFR L858R, read-out: GI50 L858R/BaF3
# [35] = EGFR DEL19 - T790M, read-out: GI50 DEL19 - T790M
# T2 sequence (P00533 25-1210 L858R): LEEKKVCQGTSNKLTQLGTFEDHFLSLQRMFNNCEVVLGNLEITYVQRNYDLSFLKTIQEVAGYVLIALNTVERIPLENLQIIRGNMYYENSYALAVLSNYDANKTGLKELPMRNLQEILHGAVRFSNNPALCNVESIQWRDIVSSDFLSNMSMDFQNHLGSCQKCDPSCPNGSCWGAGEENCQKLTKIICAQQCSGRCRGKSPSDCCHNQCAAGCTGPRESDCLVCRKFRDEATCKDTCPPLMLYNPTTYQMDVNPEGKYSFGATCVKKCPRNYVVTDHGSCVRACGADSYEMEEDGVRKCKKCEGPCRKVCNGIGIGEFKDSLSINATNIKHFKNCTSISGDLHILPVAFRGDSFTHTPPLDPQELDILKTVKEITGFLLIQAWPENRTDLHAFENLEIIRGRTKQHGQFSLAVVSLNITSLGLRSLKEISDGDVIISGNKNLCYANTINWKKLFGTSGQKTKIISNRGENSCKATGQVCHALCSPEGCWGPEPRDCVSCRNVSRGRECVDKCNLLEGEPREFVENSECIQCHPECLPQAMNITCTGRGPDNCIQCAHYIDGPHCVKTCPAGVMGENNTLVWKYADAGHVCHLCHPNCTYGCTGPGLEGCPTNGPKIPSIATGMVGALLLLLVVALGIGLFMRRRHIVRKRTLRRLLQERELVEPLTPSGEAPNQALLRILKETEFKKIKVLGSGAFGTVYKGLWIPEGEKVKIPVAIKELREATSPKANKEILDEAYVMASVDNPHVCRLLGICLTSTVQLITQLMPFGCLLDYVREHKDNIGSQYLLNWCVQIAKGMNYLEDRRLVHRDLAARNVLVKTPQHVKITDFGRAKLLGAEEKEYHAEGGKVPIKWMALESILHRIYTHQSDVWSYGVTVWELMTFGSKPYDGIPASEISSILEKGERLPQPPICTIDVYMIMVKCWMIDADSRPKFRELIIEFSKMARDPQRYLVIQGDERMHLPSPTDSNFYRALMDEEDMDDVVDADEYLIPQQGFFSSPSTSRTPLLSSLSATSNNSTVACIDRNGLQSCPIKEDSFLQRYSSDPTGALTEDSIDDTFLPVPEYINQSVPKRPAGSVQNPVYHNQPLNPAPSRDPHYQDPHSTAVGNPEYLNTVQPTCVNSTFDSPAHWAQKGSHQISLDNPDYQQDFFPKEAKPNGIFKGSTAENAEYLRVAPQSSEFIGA
# T4 sequence (P00533 with tags, fused parts or gaps DEL746-750 limits assumed): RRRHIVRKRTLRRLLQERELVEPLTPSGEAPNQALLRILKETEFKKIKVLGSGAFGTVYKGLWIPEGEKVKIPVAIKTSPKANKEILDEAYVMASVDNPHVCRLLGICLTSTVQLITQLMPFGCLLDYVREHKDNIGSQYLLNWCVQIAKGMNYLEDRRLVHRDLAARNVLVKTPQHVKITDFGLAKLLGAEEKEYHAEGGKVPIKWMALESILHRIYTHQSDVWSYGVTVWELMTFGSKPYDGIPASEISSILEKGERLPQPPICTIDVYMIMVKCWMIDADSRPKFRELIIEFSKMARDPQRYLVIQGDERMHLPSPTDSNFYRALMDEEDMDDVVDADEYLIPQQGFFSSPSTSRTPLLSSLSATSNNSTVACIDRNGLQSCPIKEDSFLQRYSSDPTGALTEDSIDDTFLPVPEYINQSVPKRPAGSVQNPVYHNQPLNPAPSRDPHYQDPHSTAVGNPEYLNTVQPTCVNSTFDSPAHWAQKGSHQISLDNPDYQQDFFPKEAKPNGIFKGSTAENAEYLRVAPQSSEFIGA
# T1 sequence (P00533 25-1210): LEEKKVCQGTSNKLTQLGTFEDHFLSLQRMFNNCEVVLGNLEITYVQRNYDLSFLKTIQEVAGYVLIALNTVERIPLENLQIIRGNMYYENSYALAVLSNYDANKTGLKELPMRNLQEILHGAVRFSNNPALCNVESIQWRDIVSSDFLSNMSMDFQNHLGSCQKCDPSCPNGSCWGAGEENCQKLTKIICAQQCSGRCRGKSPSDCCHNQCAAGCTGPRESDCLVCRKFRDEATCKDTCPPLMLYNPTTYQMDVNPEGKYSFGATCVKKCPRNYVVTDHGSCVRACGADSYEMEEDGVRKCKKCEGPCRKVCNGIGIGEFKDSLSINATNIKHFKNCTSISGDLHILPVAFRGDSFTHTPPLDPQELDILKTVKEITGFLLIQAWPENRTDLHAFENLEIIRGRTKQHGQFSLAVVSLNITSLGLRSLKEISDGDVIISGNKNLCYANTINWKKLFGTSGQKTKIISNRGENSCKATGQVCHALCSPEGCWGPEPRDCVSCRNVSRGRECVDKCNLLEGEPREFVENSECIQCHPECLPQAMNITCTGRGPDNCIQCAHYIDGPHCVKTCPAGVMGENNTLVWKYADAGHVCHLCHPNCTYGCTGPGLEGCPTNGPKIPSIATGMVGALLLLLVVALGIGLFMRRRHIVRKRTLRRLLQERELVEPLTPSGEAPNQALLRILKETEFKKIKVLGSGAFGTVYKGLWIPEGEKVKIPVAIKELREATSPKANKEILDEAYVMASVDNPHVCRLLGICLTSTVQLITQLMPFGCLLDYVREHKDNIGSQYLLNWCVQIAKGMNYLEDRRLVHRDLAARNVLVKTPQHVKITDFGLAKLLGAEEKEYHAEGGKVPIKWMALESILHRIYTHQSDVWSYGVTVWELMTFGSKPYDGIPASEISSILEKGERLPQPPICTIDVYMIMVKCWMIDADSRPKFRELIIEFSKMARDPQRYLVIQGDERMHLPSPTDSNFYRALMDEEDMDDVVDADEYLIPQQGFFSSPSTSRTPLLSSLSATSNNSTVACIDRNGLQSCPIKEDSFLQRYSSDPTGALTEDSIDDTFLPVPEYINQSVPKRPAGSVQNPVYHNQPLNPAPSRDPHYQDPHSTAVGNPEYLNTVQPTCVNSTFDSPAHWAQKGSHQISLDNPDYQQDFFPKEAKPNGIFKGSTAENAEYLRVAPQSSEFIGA
# T9 sequence (P00533 25-1210 C797S/L858R): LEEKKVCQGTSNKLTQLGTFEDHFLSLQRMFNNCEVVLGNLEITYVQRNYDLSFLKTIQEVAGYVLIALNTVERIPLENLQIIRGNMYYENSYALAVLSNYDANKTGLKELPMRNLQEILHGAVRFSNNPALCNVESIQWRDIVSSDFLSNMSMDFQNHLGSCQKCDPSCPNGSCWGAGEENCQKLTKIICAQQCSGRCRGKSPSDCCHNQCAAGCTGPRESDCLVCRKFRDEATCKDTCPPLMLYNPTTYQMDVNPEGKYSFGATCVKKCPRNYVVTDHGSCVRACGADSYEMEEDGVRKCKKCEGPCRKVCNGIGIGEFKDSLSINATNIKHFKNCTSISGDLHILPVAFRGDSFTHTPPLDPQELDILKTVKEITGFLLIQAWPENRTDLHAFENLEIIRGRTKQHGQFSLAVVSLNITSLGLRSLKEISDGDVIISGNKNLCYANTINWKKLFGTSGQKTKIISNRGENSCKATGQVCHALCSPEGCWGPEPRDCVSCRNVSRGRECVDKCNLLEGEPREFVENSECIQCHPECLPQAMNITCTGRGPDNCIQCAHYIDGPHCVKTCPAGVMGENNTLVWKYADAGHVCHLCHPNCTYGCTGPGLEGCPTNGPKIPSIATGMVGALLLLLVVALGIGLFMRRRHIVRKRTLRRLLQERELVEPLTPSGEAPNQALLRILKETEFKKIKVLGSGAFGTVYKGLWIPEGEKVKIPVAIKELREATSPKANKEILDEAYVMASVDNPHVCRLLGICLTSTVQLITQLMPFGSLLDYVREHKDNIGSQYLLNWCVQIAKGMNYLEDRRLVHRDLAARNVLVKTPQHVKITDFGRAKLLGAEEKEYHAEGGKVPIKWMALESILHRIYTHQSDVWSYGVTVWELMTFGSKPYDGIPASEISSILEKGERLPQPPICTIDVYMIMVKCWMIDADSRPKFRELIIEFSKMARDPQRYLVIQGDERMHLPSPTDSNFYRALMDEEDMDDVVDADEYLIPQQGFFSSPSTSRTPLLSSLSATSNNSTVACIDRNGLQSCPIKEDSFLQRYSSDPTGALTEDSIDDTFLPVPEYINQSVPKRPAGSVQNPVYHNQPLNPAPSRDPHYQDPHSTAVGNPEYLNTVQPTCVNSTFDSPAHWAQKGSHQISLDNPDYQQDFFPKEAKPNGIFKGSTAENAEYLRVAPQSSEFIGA
# T7 sequence (P00533 with tags, fused parts or gaps DEL746-750/T790M/C797S limits assumed): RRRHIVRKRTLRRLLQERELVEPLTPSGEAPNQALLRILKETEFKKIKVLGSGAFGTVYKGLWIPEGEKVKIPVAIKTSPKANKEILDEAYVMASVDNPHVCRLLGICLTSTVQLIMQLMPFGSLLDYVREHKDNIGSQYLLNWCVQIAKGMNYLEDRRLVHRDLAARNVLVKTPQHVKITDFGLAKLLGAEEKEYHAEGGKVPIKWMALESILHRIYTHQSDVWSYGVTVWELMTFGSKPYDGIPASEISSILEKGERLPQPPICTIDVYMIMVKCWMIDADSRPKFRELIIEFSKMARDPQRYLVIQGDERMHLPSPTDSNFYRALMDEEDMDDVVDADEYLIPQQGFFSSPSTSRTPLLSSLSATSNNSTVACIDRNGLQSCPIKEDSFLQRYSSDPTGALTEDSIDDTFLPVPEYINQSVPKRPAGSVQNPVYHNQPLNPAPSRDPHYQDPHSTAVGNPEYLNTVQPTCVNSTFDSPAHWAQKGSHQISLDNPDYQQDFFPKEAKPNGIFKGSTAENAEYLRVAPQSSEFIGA
SMILES,GI50 (A-431; [19]),IC50 (EGFR wild type; [20]),IC50 (EGFR L858R; [21]),IC50 (EGFR L858R/T790M; [22]),IC50 (EGFR Exon19Del; [23]),IC50 (EGFR Exon19Del/T790M; [24]),IC50 (EGFR[T790M/C797S/L858R]; [25]),"IC50 [1, 26]",IC50 (EGFR (d746-750 C797S); [27]),IC50 (EGFR (C797S L858R); [28]),"GI50 [2, 29]","GI50 [2, 30]","GI50 [2, 31]","GI50 [2, 32]","GI50 [2, 33]","GI50 [2, 34]","GI50 [2, 35]",GI50 (PC-9),further results
"Cn1ncc2c1OCCN1CC3CCC(CC3)(C1)n1c(nc3cc(F)ccc31)NC(=O)c1cc-2c(=O)n(C)c1 [Example A116, 6-fluoro-15,21-dimethyl-23-oxa-2,9,11,15,20,21,26-heptaazaheptacyclo[26.2.2.1^{1,26}.1^{13,17}.0^{2,10}.0^{3,8}.0^{18,22}]tetratriaconta-3,5,7,9,13,17(34),18(22),19-octaene-12,16-dione]",3440 nM,–,–,–,–,–,–,–,–,–,–,–,–,–,–,–,–,–,"IC50 (EGFR wild type; [3]): > 5000 nM; IC50 (EGFR L858R; [4]): > 5000 nM; IC50 (EGFR L858R/T790M; [5]): > 5000 nM; IC50 (EGFR Exon19Del; [6]): 464 nM; IC50 (EGFR Exon19Del/T790M; [7]): 88 nM; IC50 (EGFR[T790M/C797S/L858R]; [8]): > 5000 nM; IC50 [1, 9]: 168 nM; IC50 (EGFR (d746-750 C797S); [10]): 474 nM; IC50 (EGFR (C797S L858R); [11]): 3700 nM; GI50 [2, 12]: 56 nM; GI50 [2, 13]: 336 nM; GI50 [2, 14]: 194 nM; GI50 [2, 15]: 162 nM; GI50 [2, 16]: 720 nM; GI50 [2, 17]: 419 nM; GI50 [2, 18]: 157 nM; GI50 (PC-9; Homo sapiens, PC-9, 72 h): 256 nM"
"Cc1cc2cc(n1)-c1cnn(C)c1OCCN1CC3CCC(C3)(C1)n1c(nc3ccc(N4CCN(C5CC5)CC4)cc31)NC2=O (single isomer, unassigned) [Example B55B]",–,1830 nM,64 nM,2.3 nM,4.3 nM,3.2 nM,1.5 nM,1.6 nM,1.7 nM,6 nM,2 nM,2 nM,11 nM,2 nM,2 nM,17 nM,7 nM,10 nM,GI50 (A-431; A-431 cells): 2080 nM
"Cc1cc2cc(n1)-c1cnn(C)c1OCCN1CC3CCC(C3)(C1)n1c(nc3ccc(N4CCC5(CN(C)C5)C4)cc31)NC2=O (single isomer, unassigned) [Example B50B]",1570 nM,413 nM,26 nM,3 nM,5.1 nM,3.6 nM,1.5 nM,2.4 nM,2.1 nM,7 nM,2 nM,2 nM,4 nM,2 nM,2 nM,7 nM,2 nM,8 nM,–
"Cc1cc2cc(n1)-c1cnn(C)c1OCCN1CC3CCC(C3)(C1)n1c(nc3ccc(N4CCC(N5CCOCC5)C4)cc31)NC2=O (single isomer, unassigned) [Example B44B1]",3690 nM,> 5000 nM,337 nM,19 nM,34 nM,12 nM,6.4 nM,8.8 nM,12 nM,66 nM,2 nM,2 nM,6 nM,2 nM,2 nM,24 nM,7 nM,22 nM,–
"Cc1cc2cc(n1)-c1cnn(C)c1OCCN1CC3CCC(C3)(C1)n1c(nc3ccc(N4CCC5(CCN(C)C5)CC4)cc31)NC2=O (single isomer, unassigned) [Example B52B]",–,8.3 nM,6 nM,3.5 nM,5.4 nM,4.5 nM,1.6 nM,2 nM,2.4 nM,3.2 nM,2 nM,2 nM,2 nM,2 nM,2 nM,2 nM,7 nM,4 nM,GI50 (A-431; A-431 cells): 879 nM
"Cc1cc2cc(n1)-c1cnn(C3CC3)c1OCCN(CC(F)(F)F)CCn1c(nc3ccccc31)NC2=O [Example B6, 5-cyclopropyl-26-methyl-10-(2,2,2-trifluoroethyl)-7-oxa-4,5,10,13,20,22,27-heptaazapentacyclo[22.3.1.0^{2,6}.0^{13,21}.0^{14,19}]octacosa-1(27),2(6),3,14,16,18,20,24(28),25-nonaen-23-one]",2830 nM,–,–,–,–,–,–,–,–,–,–,–,–,–,–,–,–,–,"IC50 (EGFR wild type; [3]): > 5000 nM; IC50 (EGFR L858R; [4]): 1090 nM; IC50 (EGFR L858R/T790M; [5]): 9 nM; IC50 (EGFR Exon19Del; [6]): 197 nM; IC50 (EGFR Exon19Del/T790M; [7]): 5.2 nM; IC50 (EGFR[T790M/C797S/L858R]; [8]): 3.1 nM; IC50 [1, 9]: 3.6 nM; IC50 (EGFR (d746-750 C797S); [10]): 112 nM; IC50 (EGFR (C797S L858R); [11]): 390 nM; GI50 [2, 12]: 62 nM; GI50 [2, 13]: 42 nM; GI50 [2, 14]: 69 nM; GI50 [2, 15]: 7.7 nM; GI50 [2, 16]: 16 nM; GI50 [2, 17]: 35 nM; GI50 [2, 18]: 48 nM; GI50 (PC-9; Homo sapiens, PC-9, 72 h): 145 nM"
"Cc1cc2cc(n1)-c1cnn(C)c1OCCN1CC3CCC(C3)(C1)n1c(nc3ccc(N4CCC5(CCN(C)CC5)C4)cc31)NC2=O (single isomer, unassigned) [Example B51B]",3030 nM,546 nM,21 nM,5.9 nM,6.1 nM,5.6 nM,2.9 nM,3.4 nM,3.5 nM,8.4 nM,2 nM,2 nM,4 nM,2 nM,2 nM,8 nM,2 nM,8 nM,–
